Results on 26 molecules are retold here after patent US9409866B2, “Pyridine-2-amides useful as CB2 agonists” (Hoffmann-La Roche Inc., priority 2012, dated 2016).

For one assay, the target named is human CB2 receptors (Homo sapiens (Human), UniProt P34972). Put plainly: functional cAMP assay, CHO cells expressing human CB2. Format: cell-based. As to conditions: for EC50: Human CB2 EC50 (uM); for pEC50: read-out: Human CB2 EC50. The method in brief:
(§1)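 CHO-hCB1/hCB2 cells, KRB + 1 mM IBMX preincubation 30 min 30 °C; cpd 30 min 30 °C; lysis + TR-FRET cAMP detection, 2 h RT; cAMP from std curve; EC50.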
On the technique in general: Changes in cAMP serve as a functional read-out for many G protein-coupled receptors.

The next assay deals with human CB1 receptors (Homo sapiens (Human), UniProt P21554). The assay can be described thus: functional cAMP assay, CHO cells expressing human CB1. Type of assay: cell-based. The method in brief: as §1
Setting [1] is: Human CB1 EC50 (uM), functional cAMP assay, CHO cells expressing human CB1.
Where [2] appears, read: functional cAMP assay, CHO cells expressing human CB1; read-out: Human CB1 EC50.
Setting [3] is: read-out: Human CB1 EC50; functional cAMP assay, CHO cells expressing human CB1.

pEC50: −log10 of the molar value. Like-named read-outs stand apart in the source and are kept apart here.

human CB1 receptors, sequence (P21554 whole entry): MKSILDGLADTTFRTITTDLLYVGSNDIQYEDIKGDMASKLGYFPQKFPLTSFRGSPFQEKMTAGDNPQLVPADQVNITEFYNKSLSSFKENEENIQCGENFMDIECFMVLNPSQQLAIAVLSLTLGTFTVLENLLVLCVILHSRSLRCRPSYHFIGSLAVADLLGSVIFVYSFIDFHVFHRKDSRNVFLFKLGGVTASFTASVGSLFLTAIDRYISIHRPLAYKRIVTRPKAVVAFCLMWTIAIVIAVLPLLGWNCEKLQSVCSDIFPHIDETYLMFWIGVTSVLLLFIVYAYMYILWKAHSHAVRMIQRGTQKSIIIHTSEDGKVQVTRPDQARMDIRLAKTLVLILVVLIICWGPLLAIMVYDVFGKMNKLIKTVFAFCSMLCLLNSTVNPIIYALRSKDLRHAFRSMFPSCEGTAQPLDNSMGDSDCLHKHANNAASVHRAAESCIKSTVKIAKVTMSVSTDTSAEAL
human CB2 receptors, sequence (P34972 whole entry): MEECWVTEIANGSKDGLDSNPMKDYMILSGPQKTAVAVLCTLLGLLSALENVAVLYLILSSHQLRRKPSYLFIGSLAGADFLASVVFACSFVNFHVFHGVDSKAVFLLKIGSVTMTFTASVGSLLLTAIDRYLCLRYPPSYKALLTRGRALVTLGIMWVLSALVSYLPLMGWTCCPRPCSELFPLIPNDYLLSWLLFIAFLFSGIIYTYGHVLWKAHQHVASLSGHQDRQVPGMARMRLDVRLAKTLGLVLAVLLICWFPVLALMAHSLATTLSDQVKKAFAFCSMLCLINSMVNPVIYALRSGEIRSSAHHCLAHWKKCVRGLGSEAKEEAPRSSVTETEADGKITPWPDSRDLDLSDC

One may read the EC50 as the concentration that produces a half-maximal response. Higher therefore signals a less potent agent. Turning to `Cc1nc(C(C)(CC2CC2)NC(=O)c2cc(OCCF)c(C3CC3)cn2)no1` (single isomer, unassigned) [Example 156, 5-cyclopropyl-N-[1-cyclopropyl-2-(5-methyl-1,2,4-oxadiazol-3-yl)propan-2-yl]-4-(2-fluoroethoxy)pyridine-2-carboxamide], the EC50 at human CB2 receptors was 0.0047 µM; on human CB1 receptors (setting [1]), above 10 µM.
The pEC50 is the negative decadic logarithm of the EC50, by convention in mol/L. In the case of `C[C@H](Oc1cc(C(=O)NC2(CC(N)=O)CS(=O)(=O)C2)ncc1C1(F)CCC1)C(F)(F)F` [Example 305, N-[3-(2-amino-2-oxoethyl)-1,1-dioxothietan-3-yl]-5-(1-fluorocyclobutyl)-4-[(2S)-1,1,1-trifluoropropan-2-yl]oxypyridine-2-carboxamide], the pEC50 is 8.29 on human CB2 receptors and below 5.00 on human CB1 receptors (setting [2]).
The corresponding values for `CC(C)(C)C(NC(=O)c1cc(OCC(F)(F)F)c(C2CC2)cn1)C(=O)N1CCC1` (stereo not shown) [Example 196, N-[1-(azetidin-1-yl)-3,3-dimethyl-1-oxobutan-2-yl]-5-cyclopropyl-4-(2,2,2-trifluoroethoxy)pyridine-2-carboxamide] are 8.92 and below 5.00.
Consider `Cc1nc(C(C)(CC2CC2)NC(=O)c2cc(O[C@@H](C)C(F)(F)F)c(C3(F)COC3)cn2)no1` (stereo partly drawn) [Example 142, N-[1-cyclopropyl-2-(5-methyl-1,2,4-oxadiazol-3-yl)propan-2-yl]-5-(3-fluorooxetan-3-yl)-4-[(2S)-1,1,1-trifluoropropan-2-yl]oxypyridine-2-carboxamide], for which the pEC50 on human CB2 receptors was 8.39; at human CB1 receptors (setting [2]), below 5.00.
`Cc1nc([C@@](C)(CC2CC2)NC(=O)c2cc(OCC(F)(F)F)c(N3CC(F)(F)C3)cn2)no1` (single isomer, unassigned) [Example 91, 5-(3,3-Difluoro-azetidin-1-yl)-4-(2,2,2-trifluoro-ethoxy)-pyridine-2-carboxylic acid [2-cyclopropyl-1-methyl-1-(5-methyl-[1,2,4]oxadiazol-3-yl)-ethyl]-amide]: the EC50 on human CB2 receptors is 0.0303 µM; on human CB1 receptors (setting [1]) it was above 10 µM.
In the case of `Cc1nc(C(C)(CS(C)(=O)=O)NC(=O)c2cc(OCC(F)(F)F)c(C3CCC3)cn2)no1` (stereo not shown) [Example 109, 5-Cyclobutyl-4-(2,2,2-trifluoro-ethoxy)-pyridine-2-carboxylic acid [2-methanesulfonyl-1-methyl-1-(5-methyl-[1,2,4]oxadiazol-3-yl)-ethyl]-amide], the values for the pEC50 at human CB2 receptors and at human CB1 receptors (setting [2]) were 7.80 and below 5.00, respectively.
The corresponding values for `C[C@H](Oc1cc(C(=O)NC(C(=O)N2CC(F)(F)C2)C(C)(C)C)ncc1C1CC1)C(F)(F)F` (stereo partly drawn) [Example 203, 5-cyclopropyl-N-[1-(3,3-difluoroazetidin-1-yl)-3,3-dimethyl-1-oxobutan-2-yl]-4-[(2S)-1,1,1-trifluoropropan-2-yl]oxypyridine-2-carboxamide] are 8.29 and below 5.00.
For the molecule `Cc1nc(C(C)(NC(=O)c2cc(O[C@@H](C)C(F)(F)F)c(C3(F)COC3)cn2)C2CC2)no1` (stereo partly drawn) [Example 169, N-[1-cyclopropyl-1-(5-methyl-1,2,4-oxadiazol-3-yl)ethyl]-5-(3-fluorooxetan-3-yl)-4-[(2S)-1,1,1-trifluoropropan-2-yl]oxypyridine-2-carboxamide], the pEC50 at human CB2 receptors was 8.26; at human CB1 receptors (setting [2]) it was below 5.00.
`CC(CC(N)=O)(NC(=O)c1cc(OCC(F)(F)F)c(C2(F)CCC2)cn1)C1CC1` (single isomer, unassigned) [Example 309, N-[4-amino-2-cyclopropyl-4-oxobutan-2-yl]-5-(1-fluorocyclobutyl)-4-(2,2,2-trifluoroethoxy)pyridine-2-carboxamide]: the EC50 at human CB2 receptors came to 0.002 µM; on human CB1 receptors (setting [1]) it was 0.475 µM.
In the case of `Cc1nc(C(C)(CS(C)(=O)=O)NC(=O)c2cc(OC(C)CF)c(C3CC3)cn2)no1` (single isomer, unassigned) [Example 298, 5-cyclopropyl-4-(1-fluoropropan-2-yloxy)-N-(2-(5-methyl-1,2,4-oxadiazol-3-yl)-1-(methylsulfonyl)propan-2-yl)picolinamide], the results for the pEC50 at human CB2 receptors and at human CB1 receptors (setting [3]) were 7.24 and below 5.00, respectively.
In the case of `CC(CC1CC1)(NC(=O)c1cc(OCC(F)(F)F)c(C2CC2)cn1)c1noc(N)n1` (single isomer, unassigned) [Example 207, N-[2-(5-amino-1,2,4-oxadiazol-3-yl)-1-cyclopropylpropan-2-yl]-5-cyclopropyl-4-(2,2,2-trifluoroethoxy)pyridine-2-carboxamide], the EC50 on human CB2 receptors was 0.0083 µM; at human CB1 receptors (setting [1]), above 10 µM.
In the case of `O=C(NC(c1ccccn1)C(F)(F)F)c1cc(OCC(F)(F)F)c(C2CC2)cn1` (stereo not shown) [Example 51, 5-Cyclopropyl-4-(2,2,2-trifluoro-ethoxy)-pyridine-2-carboxylic acid (2,2,2-trifluoro-1-pyridin-2-yl-ethyl)-amide], the pEC50 is 7.91 at human CB2 receptors and below 5.00 at human CB1 receptors (setting [2]).
`CC(CC(N)=O)(NC(=O)c1cc(OCC(F)(F)F)c(C2CC2)cn1)C1CC1` (single isomer, unassigned) [Example 243, N-[4-amino-2-cyclopropyl-4-oxobutan-2-yl]-5-cyclopropyl-4-(2,2,2-trifluoroethoxy)pyridine-2-carboxamide]: the EC50 at human CB2 receptors was 0.0005 µM; on human CB1 receptors (setting [1]), above 10 µM.
For `CC(C)(C)C(NC(=O)c1cc(OC2COC2)c(Cl)cn1)c1nccs1` (stereo not shown) [Example 39, 5-Chloro-4-(oxetan-3-yloxy)-pyridine-2-carboxylic acid (2,2-dimethyl-1-thiazol-2-yl-propyl)-amide], the pEC50 was 6.89 on human CB2 receptors and below 5.00 at human CB1 receptors (setting [2]).
The corresponding values for `NC(=O)CC1(NC(=O)c2cc(OCCF)c(C3CC3)cn2)CS(=O)(=O)C1` [Example 281, N-[3-(2-amino-2-oxoethyl)-1,1-dioxothietan-3-yl]-5-cyclopropyl-4-(2-fluoroethoxy)pyridine-2-carboxamide] are 7.64 and below 5.00.
The corresponding values for `Cc1nc(C(C)(NC(=O)c2cc(OCC(F)(F)F)c(N3CCC(F)(F)C3)cn2)C2CC2)no1` (stereo not shown) [Example 79, 5-(3,3-Difluoro-pyrrolidin-1-yl)-4-(2,2,2-trifluoro-ethoxy)-pyridine-2-carboxylic acid [1-cyclopropyl-1-(5-methyl-[1,2,4]oxadiazol-3-yl)-ethyl]-amide] are 8.19 and 6.72.
The corresponding values for `O=C(N[C@@H](c1cccnc1)C(F)(F)F)c1cc(OCc2ccc(F)cc2)c(Cl)cn1` [Example 40, 5-Chloro-4-(4-fluoro-benzyloxy)-pyridine-2-carboxylic acid ((S)-2,2,2-trifluoro-1-pyridin-3-yl-ethyl)-amide] are 8.30 and 7.05.
`CC1(C(NC(=O)c2cc(OCC(F)(F)F)c(C3CC3)cn2)C(N)=O)COC1` (single isomer, unassigned) [Example 269, N-[2-amino-1-(3-methyloxetan-3-yl)-2-oxoethyl]-5-cyclopropyl-4-(2,2,2-trifluoroethoxy)pyridine-2-carboxamide] registered an EC50 at human CB2 receptors of 0.771 µM. The pEC50 on human CB1 receptors (setting [3]) is below 5.00.
`C[C@H](Oc1cc(C(=O)NC(c2noc(N)n2)C(C)(C)C)ncc1C1CC1)C(F)(F)F` (stereo partly drawn) [Example 218, N-[1-(5-amino-1,2,4-oxadiazol-3-yl)-2,2-dimethylpropyl]-5-cyclopropyl-4-[(2S)-1,1,1-trifluoropropan-2-yl]oxypyridine-2-carboxamide]: the results for the pEC50 on human CB2 receptors and at human CB1 receptors (setting [2]) were 8.17 and below 5.00, respectively.
For the molecule `CNC(=O)[C@@H](C)C(C)(C)NC(=O)c1cc(OCC2CC2)c(Cl)cn1` [Example 34, (−)-5-Chloro-4-cyclopropylmethoxy-pyridine-2-carboxylic acid (1,1-dimethyl-2-methylcarbamoyl-propyl)-amide], the pEC50 on human CB2 receptors is 6.57; at human CB1 receptors (setting [2]), below 5.00.
`Cc1nc(C(C)(NC(=O)c2cc(O[C@@H](C)C(F)(F)F)c(C3(F)COC3)cn2)C2CC2)no1` (stereo partly drawn) [Example 144, N-[1-cyclopropyl-1-(5-methyl-1,2,4-oxadiazol-3-yl)ethyl]-5-(3-fluorooxetan-3-yl)-4-[(2S)-1,1,1-trifluoropropan-2-yl]oxypyridine-2-carboxamide]: the pEC50 is 7.85 on human CB2 receptors and below 5.00 at human CB1 receptors (setting [2]).
On to `C[C@H](Oc1cc(C(=O)NC(C)(CC(N)=O)C2CC2)ncc1C1(F)COC1)C(F)(F)F` (single isomer, unassigned) [Example 278], for which, at human CB2 receptors, the response was half-maximal at 0.0929 µM (EC50). Further, the pEC50 on human CB1 receptors (setting [3]) was below 5.00.
For the molecule `CCC[C@H](CO)NC(=O)c1cc(OCC2CC2)c(Cl)cn1` [Example 13, 5-Chloro-4-cyclopropylmethoxy-pyridine-2-carboxylic acid ((R)-1-hydroxymethyl-butyl)-amide], the values for the pEC50 on human CB2 receptors and at human CB1 receptors (setting [2]) were 6.84 and below 5.00, respectively.
With `CC(CF)Oc1cc(C(=O)NC(C)(CC(N)=O)C2CC2)ncc1C1CC1` (single isomer, unassigned) [Example 304, N-(4-amino-2-cyclopropyl-4-oxobutan-2-yl)-5-cyclopropyl-4-(1-fluoropropan-2-yloxy)picolinamide], the pEC50 was 8.68 on human CB2 receptors and 6.09 at human CB1 receptors (setting [2]).
With `Cc1nc(C(C)(CS(C)(=O)=O)NC(=O)c2cc(O[C@@H](C)C(F)(F)F)c(C3(O)CCC3)cn2)no1` (stereo partly drawn) [Example 126, 5-(1-hydroxycyclobutyl)-N-[2-(5-methyl-1,2,4-oxadiazol-3-yl)-1-methylsulfonylpropan-2-yl]-4-[(2S)-1,1,1-trifluoropropan-2-yl]oxypyridine-2-carboxamide], the results for the pEC50 on human CB2 receptors and on human CB1 receptors (setting [2]) were 6.66 and below 5.00, respectively.
The corresponding values for `NC(=O)CC(NC(=O)c1cc(OCC(F)(F)F)c(C2CC2)cn1)C1CC1` (stereo not shown) [Example 193, N-(3-amino-1-cyclopropyl-3-oxopropyl)-5-cyclopropyl-4-(2,2,2-trifluoroethoxy)pyridine-2-carboxamide] are 6.95 and below 5.00.
